In experiment [1] the target is Class C β-lactamase of Enterobacter cloacae P99 (Enterobacter cloacae, UniProt P05364). The experiment is classed as biochemical. Particulars: for IC50: 10 minute incubation of enzyme and inhibitor, nitrocefin substrate, read-out: IC50 (nM) E. cloacea P99. On the procedure: (§1) The IC50 value of each compound was determined as follows. Following a 10 minute incubation of a dilute solution of enzyme (2.56 nm) and inhibitor (<0.64 mM), a […] of this incubation mixture was then further diluted into 1 mL nitrocefin solution, and the rate of hydrolysis was measured during a 1 minute period by monitoring the absorbance of nitrocefin as a function of time.

The target in experiment [2] is E. cloacae SC 12368 β-lactamase (Enterobacter cloacae, UniProt P05364). The experiment is classed as biochemical. Particulars: 10 minute incubation of enzyme and inhibitor; nitrocefin substrate; read-out: IC50 (nM) E. cloacea SC12368. On the procedure: as §1
The target in experiment [3] is E. coli. W3310 β-lactamase (TEM2) (Escherichia coli, UniProt P62593, Q37K). Conditions: read-out: IC50 (nM) E. Coli WC3310; 10 minute incubation of enzyme and inhibitor; nitrocefin substrate.

Data on 17 compounds can be found in patent publication US6599892B2, “7-alkylidene cephalosporanic acid derivatives and methods of using the same” (Research Corporation Technologies, Inc., priority 1994, dated 2003).

Structures can show the parent of a compound that is named as a salt. Bounds are passed on as bounds.

As for `CC(=O)OCC1=C(C(=O)O)N2C(=O)C(=C(Br)Br)C2SC1` (stereo not shown) [Compound 6a, Sodium salt of 7-[dibromomethylene] cephalosporanic acid], the IC50 in experiment [1], in experiment [2] and in experiment [3] was above 20000 nM each time.
In the case of `CC(=O)OCC1=C(C(=O)O)N2C(=O)C(=C(Cl)Cl)C2SC1` (stereo not shown) [Compound 6b, Sodium salt of 7-[dichloromethylene] cephalosporanic acid], the IC50 in experiment [1], in experiment [2] and in experiment [3] was above 20000 nM throughout.
For `CC(=O)OCC1=C(C(=O)O)N2C(=O)/C(=C/c3ccccn3)C2SC1` (stereo not shown) [Compound 6e, Sodium salt of ^7-[(Z)-(2′-pyridyl)methylene] cephalosporanic acid], the IC50 in experiment [1], in experiment [2] and in experiment [3] was above 20000 nM in each case.
In the case of `CC(=O)OCC1=C(C(=O)O)N2C(=O)/C(=C/C(=O)OC(C)(C)C)C2SC1` (stereo not shown) [Compound 6g, Sodium salt of 7-[(Z)-t-butoxycarbonylmethylene] cephlosporanic acid], the IC50 (in general, the point on the concentration scale where inhibition reaches its midpoint) was 2500 nM in experiment [1], above 20000 nM in experiment [2] and above 20000 nM in experiment [3].
For the compound `CC(=O)/C=C1/C(=O)N2C(C(=O)O)=C(COC(C)=O)CSC12` (stereo not shown) [Compound 6h, Sodium salt of 7-[(Z)-acetylmethylene] cephlosporanic acid], the IC50 in experiment [1], in experiment [2] and in experiment [3] was above 20000 nM each time.
Regarding `CON(C)C(=O)/C=C1/C(=O)N2C(C(=O)O)=C(COC(C)=O)CSC12` (stereo not shown) [Compound 6k, Sodium of salt of 7-[(Z)-N-methoxy-N-methylamino-carbonylmethylene] cephlosporanic acid], the IC50 in experiment [1], in experiment [2] and in experiment [3] was above 20000 nM throughout.
Turning to `CC(=O)OCC1=C(C(=O)O)N2C(=O)/C(=C\Br)C2SC1` (stereo not shown) [Compound 6l, Sodium salt of 7-[(E)-bromomethylene] cephalosporanic acid], the IC50 in experiment [1], in experiment [2] and in experiment [3] was above 20000 nM throughout.
Take `CC(=O)OCC1=C(C(=O)O)N2C(=O)/C(=C/C(C)(C)C)C2SC1` (stereo not shown) [Compound 6m, Sodium salt of 7-[(Z)-t-butylmethylene] cephalosporanic acid]: the IC50 in experiment [1], in experiment [2] and in experiment [3] was above 20000 nM throughout.
With `CC(=O)OCC1=C(C(=O)O)N2C(=O)C(=C(Br)Br)C2S(=O)(=O)C1` (stereo not shown) [Compound 7a, Sodium salt of 7-[dibromomethylene] cephalosporanic acid sulfone], the IC50 in experiment [1], in experiment [2] and in experiment [3] was above 20000 nM each time.
Take `CC(=O)OCC1=C(C(=O)O)N2C(=O)C(=C(Cl)Cl)C2S(=O)(=O)C1` (stereo not shown) [Compound 7b, Sodium salt of 7-[dichloromethylene] cephalosporanic acid sulfone]: the figures for the IC50 in experiment [1], in experiment [2] and in experiment [3] were above 20000 nM, above 20000 nM and 8300 nM, respectively.
For the compound `CC(=O)OCC1=C(C(=O)O)N2C(=O)/C(=C\c3ccccc3)C2S(=O)(=O)C1` (stereo not shown) [Compound 7c, Sodium salt of 7-[(E)-benzylidene] cephalosporanic acid sulfone], the IC50 in experiment [1], in experiment [2] and in experiment [3] was above 20000 nM throughout.
On to `CC(=O)OCC1=C(C(=O)O)N2C(=O)/C(=C/c3ccccc3)C2S(=O)(=O)C1` (stereo not shown) [Compound 7d, Sodium salt of 7-[(Z)-benzylidene] cephalosporanic acid sulfone], for which the IC50 was 6250 nM in experiment [1], 6800 nM in experiment [2] and above 20000 nM in experiment [3].
Consider `CC(=O)OCC1=C(C(=O)[O-])N2C(=O)/C(=C/c3ccccn3)C2S(=O)(=O)C1.[Na+]` (stereo not shown) [Compound 7e, Sodium salt of 7-[(Z)-(2′-pyridyl)methylene] cephalosporanic acid sulfone], for which, in experiment [1], the “fold increase in activity of sulfone over its sulfide 6e” value is on record as 1300 fold, the “fold increase in activity over tazobactam” value is 20 fold and the IC50 is 25 nM. The IC50 in experiment [2] was 25 nM. In experiment [3], the IC50 was 800 nM.
Consider `CC(=O)OCC1=C(C(=O)O)N2C(=O)/C(=C/CO)C2S(=O)(=O)C1` (stereo not shown) [Compound 7j, Sodium salt of 7-[(Z)-hydroxymethylmethylene] cephalosporanic acid sulfone], for which the IC50 in experiment [1], in experiment [2] and in experiment [3] was above 20000 nM each time.
For the compound `CC(=O)OCC1=C(C(=O)O)N2C(=O)/C(=C\Br)C2S(=O)(=O)C1` (stereo not shown) [Compound 7l, Sodium salt of 7-(E)-[bromomethylene] cephalosporanic acid sulfone], the IC50 in experiment [1], in experiment [2] and in experiment [3] was above 20000 nM each time.
For `CC(=O)OCC1=C(C(=O)O)N2C(=O)/C(=C/C(C)(C)C)C2S(=O)(=O)C1` (stereo not shown) [Compound 7m, Sodium salt of 7-[(Z)-t-butylmethylene] cephalosporanic acid sulfone], the IC50 in experiment [1], in experiment [2] and in experiment [3] was above 20000 nM in each case.
On to “Sodium salt of 7-[(Z)-t-butoxymethylene] cephalosporanic acid sulfone [Compound 7g]”, for which the IC50 in experiment [1] came out at 7800 nM; in experiment [2], 5900 nM.
